Assay results reported in patent US4175081A, “5-Substituted thiadiazole ureas” (priority 1977, dated 1979).

Experiments:
Cotton (CT) [1] = assay: Post-emergence herbicide test; type: in vivo, Gossypium hirsutum var. DPL smooth leaf; settings: Gossypium hirsutum, post-emergence, 336 h, two weeks after treatment; for pest or weed control at 8966.8 g/ha: 8 lb/acre
Method: (§1) Cotton (CT)--Gossypium hirsutum var. DPL smooth leaf
(§2) All crop and weed species were planted individually in 3' plastic pots containing potting soil. Four seeds each of corn, cotton, and snapbeans were seeded to a depth equal to the diameter of the seed. All other species were surface seeded and sprinkled with screened soil in an amount sufficient to cover the seed. Immediately after planting, all pots were watered by sub-irrigation in greenhouse trays. Pots for the pre-emergence phase were seeded one day before treatment.
(§3) Planting dates for the post-emergence phase were varied so that all seedlings would reach the desired stage of development simultaneously. The proper stage of seedling development for treatment in the post-emergence phase is as follows:
Cotton: first true leaf 1' in length; expanded cotyledons.
(§4) Spray hood constants required to deliver the above volume are as follows:
(§5) Formulations for spray applications were prepared in 50 ml volumes with the following three components:
(§6) Formulations for the 4 lbs/acre rate were prepared by adjusting the amount of active ingredient accordingly.
(§7) Spray applications were made in a hood containing a removable belt and fixed spray nozzle. For passage through the spray hood, one pot of each specie (pre-emergence phase) was placed on the rear half of the flat. Treatments were removed to the greenhouse after spraying. Watering during the observation period was done only by sub-irrigation.
(§8) Two weeks after treatment, pre- and post-emergence injury or control was visually rated, and the results were as shown in the following tables. Pre-emergence data are provided in TABLE III and post-emergence data are provided in TABLE IV, for compounds having the formula illustrated in TABLE I. Correspondingly, pre-emergence and post-emergence data, respectively, are set forth in TABLES V AND VI, for compounds having the formula illustrated in TABLE II.

Turnip (TP) [2] = assay: Post-emergence herbicide test; type: in vivo, Brassica sp.; settings: Brassica rapa, post-emergence, 336 h, two weeks after treatment; for pest or weed control at 8966.8 g/ha: 8 lb/acre
Method: (§9) Turnip (TP)--Brassica sp.
as §2, §3
Pigweed and turnips: 1 or 2 true leaves above visible cotyledons.
as §4
(§10) Formulations for spray applications were prepared in 50 ml volumes with the following three components: […]
as §7, §8

Bean (BN) [3] = assay: Post-emergence herbicide test; type: in vivo, Phaseolus vulgaris var. Black Valentine; settings: Phaseolus vulgaris, post-emergence, 336 h, two weeks after treatment; for pest or weed control at 8966.8 g/ha: 8 lb/acre
Method: (§11) Bean (BN)--Phaseolus vulgaris var. Black Valentine
as §2, §3
Beans: primary leaves expanded, growing point at primary leaf nodes.
as §4, §5, §6, §7, §8

Crabgrass (CG) [4] = assay: Pre-emergence herbicide test; type: in vivo, Digitaria sanquinalis; settings: Digitaria sanguinalis, pre-emergence, 336 h, two weeks after treatment; for pest or weed control at 8966.8 g/ha: 8 lb/acre
Method: (§12) Crabgrass (CG)--Digitaria sanquinalis
as §2, §4, §10, §7, §8

Barnyard grass (BG) [5] = assay: Pre-emergence herbicide test; type: in vivo; settings: Echinochloa crus-galli, 336 h, two weeks after treatment; for pest or weed control at 8966.8 g/ha: 8 lb/acre
Method: (§13) Barnyard grass (BG)--Echinochloa crus-galli
as §2
(§14) Compounds were tested at rates of application equivalent to 8 lbs. of actual compound per acre in a spray volume of 38 gallons per acre. Spray hood constants required to deliver the above volume are as follows:
as §5, §6, §7, §8

Johnson grass (JG) [6] = assay: Post-emergence herbicide test; type: in vivo, Sorgum helepense; settings: Sorghum halepense, 336 h, two weeks after treatment; for pest or weed control at 8966.8 g/ha: 8 lb/acre
Method: (§15) Johnson grass (JG)--Sorgum helepense
as §2, §3, §14, §5, §6, §7, §8

Bean (BN) [7] = assay: Pre-emergence herbicide test; type: in vivo, Phaseolus vulgaris var. Black Valentine; settings: Phaseolus vulgaris, 336 h, two weeks after treatment; for pest or weed control at 8966.8 g/ha: 8 lb/acre
Method: as §11, §2, §14, §5, §6, §7, §8

Corn (CN) [8] = assay: Pre-emergence herbicide test; type: in vivo; settings: Zea mays, 336 h, two weeks after treatment; for pest or weed control at 8966.8 g/ha: 8 lb/acre
Method: as §2, §14, §5, §6, §7, §8

Turnip (TP) [9] = assay: Pre-emergence herbicide test; type: in vivo, Brassica sp.; settings: Brassica rapa, pre-emergence, 336 h, two weeks after treatment; for pest or weed control at 8966.8 g/ha: 8 lb/acre
Method: as §9, §2, §4, §10, §7, §8

Cotton (CT) [10] = assay: Pre-emergence herbicide test; type: in vivo, Gossypium hirsutum var. DPL smooth leaf; settings: Gossypium hirsutum, 336 h, two weeks after treatment; for pest or weed control at 8966.8 g/ha: 8 lb/acre
Method: as §1, §2, §14, §5, §6, §7, §8

Johnson grass (JG) [11] = assay: Pre-emergence herbicide test; type: in vivo, Sorgum helepense; settings: Sorghum halepense, 336 h, two weeks after treatment; for pest or weed control at 8966.8 g/ha: 8 lb/acre
Method: as §15, §2, §14, §5, §6, §7, §8

Barnyard grass (BG) [12] = assay: Post-emergence herbicide test; type: in vivo; settings: Echinochloa crus-galli, 336 h, two weeks after treatment; for pest or weed control at 8966.8 g/ha: 8 lb/acre
Method: as §13, §2, §3, §14, §5, §6, §7, §8

Corn (CN) [13] = assay: Post-emergence herbicide test; type: in vivo; settings: Zea mays, 336 h, two weeks after treatment; for pest or weed control at 8966.8 g/ha: 8 lb/acre
Method: as §2, §3, §14, §5, §6, §7, §8

Crabgrass (CG) [14] = assay: Post-emergence herbicide test; type: in vivo, Digitaria sanquinalis; settings: Digitaria sanguinalis, post-emergence, 336 h, two weeks after treatment; for pest or weed control at 8966.8 g/ha: 8 lb/acre
Method: as §12, §2, §3, §4, §10, §7, §8

| Compound | pest or weed control at 8966.8 g/ha (Cotton (CT) [1]) | pest or weed control at 8966.8 g/ha (Turnip (TP) [2]) | pest or weed control at 8966.8 g/ha (Bean (BN) [3]) | pest or weed control at 8966.8 g/ha (Crabgrass (CG) [4]) | pest or weed control at 8966.8 g/ha (Barnyard grass (BG) [5]) | pest or weed control at 8966.8 g/ha (Johnson grass (JG) [6]) | pest or weed control at 8966.8 g/ha (Bean (BN) [7]) | pest or weed control at 8966.8 g/ha (Corn (CN) [8]) | pest or weed control at 8966.8 g/ha (Turnip (TP) [9]) | pest or weed control at 8966.8 g/ha (Cotton (CT) [10]) | pest or weed control at 8966.8 g/ha (Johnson grass (JG) [11]) | pest or weed control at 8966.8 g/ha (Barnyard grass (BG) [12]) | pest or weed control at 8966.8 g/ha (Corn (CN) [13]) | pest or weed control at 8966.8 g/ha (Crabgrass (CG) [14]) | also measured |
| --- | --- | --- | --- | --- | --- | --- | --- | --- | --- | --- | --- | --- | --- | --- | --- |
| CNC(=O)Nc1nnc(-c2ccc(Cl)cc2Cl)s1 [Example 75] | 50% | 80% | 100% | 0% | 0% | 30% | 100% | 0% | 40% | 30% | 0% | 40% | 30% | 50% | – |
| CNC(=O)Nc1nnc(-c2ccc(C)cc2)s1 [Example 76] | 50% | 60% | 50% | 20% | 30% | 30% | 80% | 50% | 40% | 100% | 0% | 40% | 30% | 40% | – |
| CCCCCCCCSc1nnc(NC(=O)NC)s1 [Example 78] | – | – | – | – | – | – | – | – | – | – | – | – | – | – | pest or weed control at 1120.85 g/ha (Cotton (CT) [1]; 1 lb/acre): 80%; pest or weed control at 1120.85 g/ha (Turnip (TP) [2]; 1 lb/acre): 100%; pest or weed control at 1120.85 g/ha (Bean (BN) [3]; 1 lb/acre): 100%; pest or weed control (Crabgrass (CG) [4]; 1 lb/acre): 20%; pest or weed control at 1120.85 g/ha (Barnyard grass (BG) [5]; 1 lb/acre): 0%; pest or weed control at 1120.85 g/ha (Johnson grass (JG) [6]; 1 lb/acre): 30%; pest or weed control at 1120.85 g/ha (Bean (BN) [7]; 1 lb/acre): 80%; pest or weed control at 1120.85 g/ha (Corn (CN) [8]; 1 lb/acre): 0%; pest or weed control at 1120.85 g/ha (Turnip (TP) [9]; 1 lb/acre): 0%; pest or weed control at 1120.85 g/ha (Cotton (CT) [10]; 1 lb/acre): 30%; pest or weed control at 1120.85 g/ha (Johnson grass (JG) [11]; 1 lb/acre): 0%; pest or weed control at 1120.85 g/ha (Barnyard grass (BG) [12]; 1 lb/acre): 40%; pest or weed control at 1120.85 g/ha (Corn (CN) [13]; 1 lb/acre): 40%; pest or weed control at 1120.85 g/ha (Crabgrass (CG) [14]; 1 lb/acre): 30% |
| CCSCCSc1nnc(NC(=O)NC)s1 [Example 80] | 80% | 100% | 100% | 50% | 20% | 60% | 100% | 0% | 0% | 50% | 20% | 50% | 0% | 90% | – |
